Experimental data reported in patent US10227342B2 (ARIAD PHARMACEUTICALS, INC., priority 2014, dated 2019).

Assays:
Format in all cases: cell-based
[1] = biological target: human EGFR exon 20 insertion ASV (V769_D770insASV) (Homo sapiens (Human), UniProt P00533, INS769ASV); experiment: Ba/F3-EGFR-Exon20-ASV cell anti-proliferative assay (CellTiter 96 MTS, 72 h); details: Ba/F3-EGFR-Exon20-ASV cells;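 further: Ba/F3 cells bearing the EGFR exon 20 ASV insertion, a line able to proliferate without IL-3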
Chain of human EGFR exon 20 insertion ASV (V769_D770insASV) (P00533 other isoform, or with tags, fused parts or gaps ins ASV behind 769): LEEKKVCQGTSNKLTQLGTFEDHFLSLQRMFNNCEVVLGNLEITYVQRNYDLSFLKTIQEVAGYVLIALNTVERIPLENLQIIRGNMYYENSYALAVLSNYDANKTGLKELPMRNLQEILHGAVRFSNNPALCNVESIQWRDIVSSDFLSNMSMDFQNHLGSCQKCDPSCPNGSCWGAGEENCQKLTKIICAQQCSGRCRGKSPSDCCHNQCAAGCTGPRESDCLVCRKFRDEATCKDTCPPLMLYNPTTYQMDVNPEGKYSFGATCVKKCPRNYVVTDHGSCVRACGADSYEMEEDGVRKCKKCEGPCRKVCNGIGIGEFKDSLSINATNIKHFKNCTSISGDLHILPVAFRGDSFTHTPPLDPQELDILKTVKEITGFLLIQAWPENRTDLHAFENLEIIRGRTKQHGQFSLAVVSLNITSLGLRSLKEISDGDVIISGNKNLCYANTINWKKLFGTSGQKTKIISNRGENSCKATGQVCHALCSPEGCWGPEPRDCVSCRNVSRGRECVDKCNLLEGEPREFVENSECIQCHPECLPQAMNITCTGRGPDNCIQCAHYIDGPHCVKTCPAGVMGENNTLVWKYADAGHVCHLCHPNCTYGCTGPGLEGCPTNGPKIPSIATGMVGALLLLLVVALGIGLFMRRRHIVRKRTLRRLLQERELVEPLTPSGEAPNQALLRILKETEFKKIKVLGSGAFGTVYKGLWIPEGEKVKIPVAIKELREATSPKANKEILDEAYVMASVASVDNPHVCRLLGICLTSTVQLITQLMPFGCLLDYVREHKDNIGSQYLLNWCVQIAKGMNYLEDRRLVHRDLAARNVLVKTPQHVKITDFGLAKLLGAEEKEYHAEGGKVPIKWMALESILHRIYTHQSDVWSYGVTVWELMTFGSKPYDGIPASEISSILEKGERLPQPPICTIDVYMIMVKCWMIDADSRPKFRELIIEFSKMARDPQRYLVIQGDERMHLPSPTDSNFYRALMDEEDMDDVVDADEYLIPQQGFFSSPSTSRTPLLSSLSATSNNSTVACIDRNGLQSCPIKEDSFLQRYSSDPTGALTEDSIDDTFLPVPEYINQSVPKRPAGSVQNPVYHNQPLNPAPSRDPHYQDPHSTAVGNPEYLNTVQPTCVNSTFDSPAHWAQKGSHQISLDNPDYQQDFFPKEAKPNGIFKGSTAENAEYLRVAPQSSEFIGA

[2] = biological target: Her2 exon 20 YVMA insertion (A775_G776ins YVMA) (Homo sapiens (Human), UniProt P04626, INS775YVMA); experiment: Ba/F3-Her2 Exon20 YVMA cell anti-proliferative assay (CellTiter 96 MTS, 72 h); details: Ba/F3-Her2 Exon20 YVMA cells
Chain of Her2 exon 20 YVMA insertion (A775_G776ins YVMA) (P04626 other isoform, or with tags, fused parts or gaps ins YVMA behind 775): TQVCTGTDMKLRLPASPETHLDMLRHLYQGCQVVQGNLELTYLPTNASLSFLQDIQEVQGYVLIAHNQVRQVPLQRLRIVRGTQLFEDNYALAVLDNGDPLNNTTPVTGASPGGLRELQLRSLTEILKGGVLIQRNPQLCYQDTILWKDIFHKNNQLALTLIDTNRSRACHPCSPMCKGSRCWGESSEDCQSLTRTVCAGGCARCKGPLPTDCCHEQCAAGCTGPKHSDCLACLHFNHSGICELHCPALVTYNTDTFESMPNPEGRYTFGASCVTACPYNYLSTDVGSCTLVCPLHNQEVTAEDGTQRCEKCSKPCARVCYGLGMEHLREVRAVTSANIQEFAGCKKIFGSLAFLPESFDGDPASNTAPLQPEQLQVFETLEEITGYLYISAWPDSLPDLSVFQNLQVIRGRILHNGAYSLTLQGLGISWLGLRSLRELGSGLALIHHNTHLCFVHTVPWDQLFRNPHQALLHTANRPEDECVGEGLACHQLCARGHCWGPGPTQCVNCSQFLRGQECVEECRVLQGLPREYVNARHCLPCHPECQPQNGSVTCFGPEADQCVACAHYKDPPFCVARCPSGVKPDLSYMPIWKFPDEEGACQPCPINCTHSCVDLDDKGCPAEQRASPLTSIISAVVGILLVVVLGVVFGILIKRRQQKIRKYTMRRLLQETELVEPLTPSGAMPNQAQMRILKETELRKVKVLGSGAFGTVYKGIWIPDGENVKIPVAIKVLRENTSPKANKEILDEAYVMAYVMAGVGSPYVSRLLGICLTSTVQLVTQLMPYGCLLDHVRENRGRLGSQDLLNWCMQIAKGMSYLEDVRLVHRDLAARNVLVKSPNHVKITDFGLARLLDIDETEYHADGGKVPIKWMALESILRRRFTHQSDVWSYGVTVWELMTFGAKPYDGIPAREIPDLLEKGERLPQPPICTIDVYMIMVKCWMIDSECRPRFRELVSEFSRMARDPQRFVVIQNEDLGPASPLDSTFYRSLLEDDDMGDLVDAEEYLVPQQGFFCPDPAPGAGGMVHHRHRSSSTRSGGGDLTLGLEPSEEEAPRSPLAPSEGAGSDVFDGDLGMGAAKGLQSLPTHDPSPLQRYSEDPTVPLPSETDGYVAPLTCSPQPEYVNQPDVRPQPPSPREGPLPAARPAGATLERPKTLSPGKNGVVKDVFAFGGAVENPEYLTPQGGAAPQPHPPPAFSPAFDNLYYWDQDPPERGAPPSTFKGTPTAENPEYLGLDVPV
Excerpt: Ba/F3 cells expressing Her2 Exon20 YVMA insertions (named Ba/F3-Her2 Exon20 YVMA) can proliferate in the absence of IL-3.

[3] = biological target: human EGFR exon 20 insertion NPG (H773_V774insNPG) (Homo sapiens, UniProt P00533, INS773NPG, cells depend on it); experiment: Ba/F3-EGFR-Exon20-NPG cell anti-proliferative assay (CellTiter 96 MTS, 72 h); details: read-out: EGFR exon 20 NPG insertion IC50
Chain of human EGFR exon 20 insertion NPG (H773_V774insNPG) (P00533 with tags, fused parts or gaps INS773NPG limits assumed): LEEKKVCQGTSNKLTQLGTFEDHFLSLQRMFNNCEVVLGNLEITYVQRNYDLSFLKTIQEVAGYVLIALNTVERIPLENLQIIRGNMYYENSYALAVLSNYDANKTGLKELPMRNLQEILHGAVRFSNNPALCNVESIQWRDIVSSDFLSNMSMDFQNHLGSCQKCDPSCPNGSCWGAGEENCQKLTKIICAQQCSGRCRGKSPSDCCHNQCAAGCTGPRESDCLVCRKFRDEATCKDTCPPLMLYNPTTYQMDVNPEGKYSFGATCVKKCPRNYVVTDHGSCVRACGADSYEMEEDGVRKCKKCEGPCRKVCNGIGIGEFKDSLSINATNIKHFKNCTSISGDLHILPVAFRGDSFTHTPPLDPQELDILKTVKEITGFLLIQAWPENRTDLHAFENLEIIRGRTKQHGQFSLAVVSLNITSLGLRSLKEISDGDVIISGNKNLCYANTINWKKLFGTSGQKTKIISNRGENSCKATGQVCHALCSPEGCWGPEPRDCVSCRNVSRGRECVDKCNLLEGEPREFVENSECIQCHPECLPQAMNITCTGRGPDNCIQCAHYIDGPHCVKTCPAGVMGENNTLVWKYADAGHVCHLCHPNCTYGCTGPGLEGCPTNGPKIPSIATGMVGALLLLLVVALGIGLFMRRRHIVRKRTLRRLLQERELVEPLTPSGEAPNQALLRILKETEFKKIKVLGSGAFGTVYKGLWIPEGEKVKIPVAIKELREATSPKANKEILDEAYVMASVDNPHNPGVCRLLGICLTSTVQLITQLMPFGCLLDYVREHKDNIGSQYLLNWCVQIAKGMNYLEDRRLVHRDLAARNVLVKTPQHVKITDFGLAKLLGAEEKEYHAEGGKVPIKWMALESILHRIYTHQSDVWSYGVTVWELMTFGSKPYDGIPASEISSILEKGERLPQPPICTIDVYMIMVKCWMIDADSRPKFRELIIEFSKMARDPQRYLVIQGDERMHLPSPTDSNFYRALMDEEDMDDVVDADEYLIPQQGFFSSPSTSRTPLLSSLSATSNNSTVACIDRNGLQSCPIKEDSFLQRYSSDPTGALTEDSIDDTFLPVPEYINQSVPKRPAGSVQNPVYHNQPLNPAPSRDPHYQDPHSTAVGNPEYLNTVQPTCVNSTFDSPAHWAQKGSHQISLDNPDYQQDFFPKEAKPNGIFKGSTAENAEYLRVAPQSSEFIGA
Protocol: Ba/F3 cells expressing EGFR exon 20 insertions (named Ba/F3-EGFR-Exon20-NPG or Ba/F3-EGFR-Exon20-ASV) can proliferate in the absence of IL-3. The anti-proliferative activity of compounds were determined as follows: BaF3-EGFR-Exon20 cells (NPG or ASV) seeded in 96 well plates (2500 cells/well) were treated with test compound (dissolved in DMSO) at a series of concentrations (4-fold dilution, top concentration: 10,000 nM). The plates were incubated for 72 h in a 37° C. incubator with 5% CO2, and the number of viable cells in each well were measured indirectly by CellTiter 96® Aqueous One Solution Cell Proliferation Assay (Promega) This assay is a colorimetric method for determining the number of viable cells through measurement of their metabolic activity by detection of enzymatic conversion of tetrazolium salts into blue formazan derivatives. Reagent (20 μL) was added into each well, and the plates were returned to the incubator for 2 h. The absorbance in each well was then measured at 490 nm using an Envision plate reader (Perkin Elmer).

[4] = biological target: human EGFR E746-A750 deletion and T790M Mutation (DT) (Homo sapiens (Human), UniProt P00533, DEL746-750/T790M); experiment: Ba/F3-EGFR-Del/T790M cell anti-proliferative assay (CellTiter 96 MTS, 72 h); details: Ba/F3-EGFR-Del/T790M cells; for IC50: read-out: EGFR exon 19 deletion and T790M mutation IC50
Chain of human EGFR E746-A750 deletion and T790M Mutation (DT) (P00533 other isoform, or with tags, fused parts or gaps T790M/del E746-A750): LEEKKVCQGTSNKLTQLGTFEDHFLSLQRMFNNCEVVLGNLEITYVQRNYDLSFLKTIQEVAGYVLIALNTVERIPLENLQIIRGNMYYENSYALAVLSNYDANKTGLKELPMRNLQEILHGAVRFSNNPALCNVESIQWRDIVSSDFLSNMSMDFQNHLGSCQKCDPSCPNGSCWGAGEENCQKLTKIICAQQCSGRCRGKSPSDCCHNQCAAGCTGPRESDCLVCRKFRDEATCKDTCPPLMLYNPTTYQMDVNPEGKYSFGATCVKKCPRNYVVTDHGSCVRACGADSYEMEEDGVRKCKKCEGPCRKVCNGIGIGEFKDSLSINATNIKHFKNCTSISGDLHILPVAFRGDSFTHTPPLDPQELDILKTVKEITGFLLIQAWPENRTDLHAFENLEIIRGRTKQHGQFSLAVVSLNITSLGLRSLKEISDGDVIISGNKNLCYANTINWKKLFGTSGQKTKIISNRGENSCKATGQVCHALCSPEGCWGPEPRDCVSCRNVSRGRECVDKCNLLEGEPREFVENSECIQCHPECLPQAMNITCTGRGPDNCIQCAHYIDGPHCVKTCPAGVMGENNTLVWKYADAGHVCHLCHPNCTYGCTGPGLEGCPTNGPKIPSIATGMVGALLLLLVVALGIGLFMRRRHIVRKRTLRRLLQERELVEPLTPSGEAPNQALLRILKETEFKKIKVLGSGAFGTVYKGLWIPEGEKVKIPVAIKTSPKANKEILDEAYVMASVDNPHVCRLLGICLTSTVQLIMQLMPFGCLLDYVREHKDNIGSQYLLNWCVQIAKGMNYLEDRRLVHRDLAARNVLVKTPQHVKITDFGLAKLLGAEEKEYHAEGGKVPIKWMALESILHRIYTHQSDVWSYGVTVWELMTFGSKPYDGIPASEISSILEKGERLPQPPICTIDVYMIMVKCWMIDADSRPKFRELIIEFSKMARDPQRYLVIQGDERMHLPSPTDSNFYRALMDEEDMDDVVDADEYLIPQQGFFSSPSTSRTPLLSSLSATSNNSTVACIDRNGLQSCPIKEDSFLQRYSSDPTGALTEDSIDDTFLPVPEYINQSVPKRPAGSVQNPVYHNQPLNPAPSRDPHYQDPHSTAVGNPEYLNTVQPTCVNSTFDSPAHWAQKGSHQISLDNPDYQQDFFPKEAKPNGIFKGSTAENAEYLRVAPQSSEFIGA

Compound | IC50 [1] [nM] | IC50 [2] [nM] | IC50 [3] [nM] | IC50 [4] [nM] | EGFR exon 19 deletion and T790M mutation IC50 [4]
C=CC(=O)Nc1cc(Nc2ncc(C(=O)OC(C)C)c(-c3cn(C(C)=O)c4ccccc34)n2)c(OC)cc1N(C)CCN(C)C [Example 78, isopropyl 4-(1-acetyl-1H-indol-3-yl)-2-((5-acrylamido-4-((2-(dimethylamino)ethyl)(methyl)amino)-2-methoxyphenyl)amino)pyrimidine-5-carboxylate] | < 100 | < 100 | < 100 | < 100 | 
C=CC(=O)Nc1cc(Nc2ncc(C(=O)OC)c(-c3cn(C)c4ccccc34)n2)c(OC)cc1C#CCN(C)C [Example 68, methyl 2-((5-acrylamido-4-(3-(dimethylamino)prop-1-yn-1-yl)-2-methoxyphenyl)amino)-4-(1-methyl-1H-indol-3-yl)pyrimidine-5-carboxylate] | 100 to 500 | 500 to 1000 | < 100 | < 100 | 
C=CC(=O)Nc1cc(Nc2ncc(Cl)c(-c3cnn4ccccc34)n2)c(OC)cc1N1CCC(N(C)C)C1 (stereo not shown) [Example 55, N-(5-((5-chloro-4-(pyrazolo[1,5-a]pyridin-3-yl)pyrimidin-2-yl)amino)-2-(3-(dimethylamino)pyrrolidin-1-yl)-4-methoxyphenyl)acrylamide] | > 1000 | > 1000 | 100 to 500 | < 100 | 
C=CC(=O)Nc1cc(Nc2nccc(-c3cn(C)c4cc(C(=O)OC)ccc34)n2)c(OC)cc1N(C)CCN(C)C [Example 82, methyl 3-(2-((5-acrylamido-4-((2-(dimethylamino)ethyl)(methyl)amino)-2-methoxyphenyl)amino)pyrimidin-4-yl)-1-methyl-1H-indole-6-carboxylate] | 100 to 500 | 100 to 500 | < 100 | < 100 | 
C=CC(=O)Nc1cc(Nc2ncc(C(=O)OC(C)C)c(-n3ccc4ccccc43)n2)c(OC)cc1N(C)CCN(C)C [Example 15, isopropyl 2-((5-acrylamido-4-((2-(dimethylamino)ethyl)(methyl)amino)-2-methoxyphenyl)amino)-4-(1H-indol-1-yl)pyrimidine-5-carboxylate] | < 100 | < 100 | < 100 | < 100 | 
C=CC(=O)Nc1cc(Nc2nccc(-c3c(-c4cncc(Cl)c4)n(C)c4ccccc34)n2)c(OC)cc1N(C)CCN(C)C [Example 6, N-(5-((4-(2-(5-chloropyridin-3-yl)-1-methyl-1H-indol-3-yl)pyrimidin-2-yl)amino)-2-((2-(dimethylamino)ethyl)(methyl)amino)-4-methoxyphenyl)acrylamide] | < 100 | 100 to 500 | < 100 | < 100 | 
C=CC(=O)Nc1cc(Nc2ncc(C#N)c(-c3nn(C)c4ccccc34)n2)c(OC)cc1N(C)CCN(C)C [Example 98, N-(5-((5-cyano-4-(1-methyl-1H-indazol-3-yl)pyrimidin-2-yl)amino)-2-((2-(dimethylamino)ethyl)(methyl)amino)-4-methoxyphenyl)acrylamide] | < 100 | < 100 | < 100 | < 100 | 
C=CC(=O)Nc1cc(Nc2ncc(NC(=O)C(C)(C)C)c(-c3cn(C)c4ccccc34)n2)c(OC)cc1N(C)CCN(C)C [Example 41, N-(2-((2-(dimethylamino)ethyl)-(methyl)amino)-4-methoxy-5-((4-(1-methyl-1H-indol-3-yl)-5-pivalamidopyrimidin-2-yl)amino)phenyl)acrylamide] | 500 to 1000 | > 1000 | 100 to 500 | > 1000 | 
C=CC(=O)Nc1cc(Nc2ncc(C(=O)OC)c(-c3cn(C)c4ccccc34)n2)c(OC)cc1N(C)CCN(C)C [Example 8, methyl 2-((5-acrylamido-4-((2-(dimethylamino)ethyl)(methyl)amino)-2-methoxyphenyl)amino)-4-(1-methyl-1H-indol-3-yl)pyrimidine-5-carboxylate] | < 100 | < 100 | < 100 | < 100 | 
C=CC(=O)Nc1cc(Nc2ncc(C(=O)OC)c(-c3cn(C)c4ccccc34)n2)c(OC)cc1N(C)CC1CCCN1C (stereo not shown) [Example 16, methyl 2-((5-acrylamido-2-methoxy-4-(methyl((1-methylpyrrolidin-2-yl)methyl)amino)phenyl)amino)-4-(1-methyl-1H-indol-3-yl)pyrimidine-5-carboxylate] | < 100 | 100 to 500 | < 100 | < 100 | 
C=CC(=O)Nc1cc(Nc2nccc(-c3cn(C)c4cccc(C(=O)OC)c34)n2)c(OC)cc1N(C)CCN(C)C [Example 80, methyl 3-(2-((5-acrylamido-4-((2-(dimethylamino)ethyl)(methyl)amino)-2-methoxyphenyl)amino)pyrimidin-4-yl)-1-methyl-1H-indole-4-carboxylate] | > 1000 | > 1000 | > 1000 |  | D (Group D compounds have an IC50 value for the indicated mutant greater than about 1 μM)
C=CC(=O)Nc1cc(Nc2ncc(C(=O)OC(C)C)c(-c3nn(C)c4ccccc34)n2)c(OC)cc1N(C)CCN(C)C [Example 59, isopropyl 2-((5-acrylamido-4-((2-(dimethylamino)ethyl)(methyl)amino)-2-methoxyphenyl)amino)-4-(1-methyl-1H-indazol-3-yl)pyrimidine-5-carboxylate] | < 100 | < 100 | < 100 | < 100 | 
C=CC(=O)Nc1ccc(OC)c(Nc2ncc(C#N)c(-c3cn(C)c4cc(OCCN5CCCC5)ccc34)n2)c1 [Example 20, N-(3-((5-cyano-4-(1-methyl-6-(2-(pyrrolidin-1-yl)ethoxy)-1H-indol-3-yl)pyrimidin-2-yl)amino)-4-methoxyphenyl)acrylamide] | 100 to 500 | 500 to 1000 | < 100 | < 100 | 
C=CC(=O)Nc1cc(Nc2ncc(C(=O)O[C@@H]3CCOC3)c(-c3cn(C)c4ccccc34)n2)c(OC)cc1N(C)CCN(C)C [Example 37, (R)-tetrahydrofuran-3-yl 2-((5-acrylamido-4-((2-(dimethylamino)ethyl)-(methyl)amino)-2-methoxyphenyl)amino)-4-(1-methyl-1H-indol-3-yl)pyrimidine-5-carboxylate] | < 100 | 100 to 500 | < 100 | < 100 | 
C=CC(=O)Nc1cc(Nc2ncc(N(C)C(=O)C(C)C)c(-c3cn(C)c4ccccc34)n2)c(OC)cc1N(C)CCN(C)C [Example 40, N-(2-((2-(dimethylamino)ethyl)-(methyl)-amino)-4-methoxy-5-((4-(1-methyl-1H-indol-3-yl)-5-(N-methylisobutyramido)-pyrimidin-2-yl)amino)phenyl)acrylamide] | 100 to 500 | > 1000 | 100 to 500 |  | C (Group C compounds have an IC50 value for the indicated mutant between greater than about 500 to about 1 μM)
C=CC(=O)Nc1cc(Nc2nccc(-c3cn(C)c4ccc(C(=O)OC)cc34)n2)c(OC)cc1N(C)CCN(C)C [Example 81, methyl 3-(2-((5-acrylamido-4-((2-(dimethylamino)ethyl)(methyl)amino)-2-methoxyphenyl)amino)pyrimidin-4-yl)-1-methyl-1H-indole-5-carboxylate] | 100 to 500 | 500 to 1000 | < 100 | < 100 | 
